Test results reported in patent US10975068B2, “6-aminopyridin-3-yl thiazoles as modulators of RORγT” (Janssen Pharmaceutica NV, priority 2016, dated 2021).
pIC50, pKd: −log10 of the molar value. Like-named read-outs stand apart in the source and are kept apart here.

Legend:
[1] = biological target: human RORγt ligand binding domain (RORγt LBD) (Homo sapiens (Human), UniProt P51449); assay: RORγt ThermoFluor® assay (thermal shift binding); conditions: for pKd: read-out: ThermoFluor® Assay, Kd
Method in brief: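 His-tagged human RORγt LBD (0.065 mg/mL) with 60 μM 1,8-ANS in 100 mM Hepes pH 7.0, 10 mM NaCl, 2.5 mM GSH, 0.002% Tween-20 was heated at 1 °C/min.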

full-length human RORγt = full-length human RORγt (Homo sapiens (Human), UniProt P51449); assay: RORγt (full-length human) reporter assay, Conditions B or C; assay type: cell-based; conditions: for RORγt (FL) Reporter Assay B or C, % inhibition (value marked *): marked *: footnote not given; for pIC50: read-out: RORγt (FL) Reporter Assay B or C, IC50; for inhibition at 3 µM: at 3 μM compound concentration
Method in brief: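 HEK293T cells transiently co-transfected with GAL4-DBD–full-length human RORγt (nt 142-1635, NM_001001523.1) plus GAL4-firefly and CMV-Renilla luciferase reporters; compounds added 4-6 h post-transfection for 16-20 h in 1.3% FBS, 0.1% DMSO. Firefly signal normalized to DMSO and saturating reference compound, then to Renilla; IC50 from concentration plots.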

[2] = read-out: RORγt (FL) Reporter Assay B or C, % inhibition

Chain of full-length human RORγt (P51449 other isoform, or with tags, fused parts or gaps): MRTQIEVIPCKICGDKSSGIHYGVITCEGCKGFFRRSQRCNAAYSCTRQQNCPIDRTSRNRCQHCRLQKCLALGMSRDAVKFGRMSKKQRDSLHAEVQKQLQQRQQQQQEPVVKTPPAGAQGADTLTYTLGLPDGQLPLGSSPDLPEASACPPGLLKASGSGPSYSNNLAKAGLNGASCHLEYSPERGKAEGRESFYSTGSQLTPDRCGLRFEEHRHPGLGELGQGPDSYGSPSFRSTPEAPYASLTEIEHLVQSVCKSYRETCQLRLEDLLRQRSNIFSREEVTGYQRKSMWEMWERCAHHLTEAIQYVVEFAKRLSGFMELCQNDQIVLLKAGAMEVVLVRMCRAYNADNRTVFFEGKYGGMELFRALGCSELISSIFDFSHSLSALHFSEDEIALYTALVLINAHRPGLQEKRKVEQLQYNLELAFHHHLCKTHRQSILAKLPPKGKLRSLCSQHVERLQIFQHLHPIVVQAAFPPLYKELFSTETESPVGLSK
Chain of human RORγt ligand binding domain (RORγt LBD) (P51449 other isoform, or with tags, fused parts or gaps): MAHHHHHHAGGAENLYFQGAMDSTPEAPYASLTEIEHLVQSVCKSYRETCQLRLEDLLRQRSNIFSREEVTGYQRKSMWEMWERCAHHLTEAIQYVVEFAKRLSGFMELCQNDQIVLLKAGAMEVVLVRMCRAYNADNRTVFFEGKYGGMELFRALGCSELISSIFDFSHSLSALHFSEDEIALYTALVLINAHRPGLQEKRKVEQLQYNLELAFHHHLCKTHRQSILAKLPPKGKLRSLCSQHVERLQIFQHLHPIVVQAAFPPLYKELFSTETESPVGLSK

Compound	RORγt (FL) Reporter Assay B or C, % inhibition (value marked *) (full-length human RORγt; Conditions B or C)	pKd [1]	pIC50 (full-length human RORγt; Conditions B or C)	inhibition at 3 µM (full-length human RORγt; [2]) [%]	pIC50 (full-length human RORγt)	other results
CC[C@@H](Nc1cc(C(F)(F)F)c(-c2sc(C(=O)NCC(C)(C)O)nc2C(=O)N2C3CCC2CC3)cn1)C1CC1 (stereo in doubt) [Example 131]	107* %	–	–	–	–	Kd ([1]; ThermoFluor® Assay, Kd (μM)): 0.0014 µM; IC50 (full-length human RORγt; RORγt (FL) Reporter Assay B or C, IC50 (μM), Conditions B or C): 0.03 µM
C[C@H]1CCN1C(=O)c1nc(C(=O)NCC(C)(C)O)sc1-c1cnc(NC2CCCCC2)cc1C(F)(F)F [Example 25, (S)-5-(6-(Cyclohexylamino)-4-(trifluoromethyl)pyridin-3-yl)-N-(2-hydroxy-2-methylpropyl)-4-(2-methylazetidine-1-carbonyl)thiazole-2-carboxamide]	–	6.92	6.66	–	–	inhibition at 6 µM (full-length human RORγt; read-out: RORγt (FL) Reporter Assay B or C, % inhibition @ 6 μM, Conditions B or C, @ 6 μM): 102%
C[C@H]1CC(F)(F)CN1C(=O)c1nc(C(=O)NCC(C)(C)O)sc1-c1cnc(NCC2(C(F)(F)F)CC2)cc1C(F)(F)F [Example 126, (S)-4-(4,4-Difluoro-2-methylpyrrolidine-1-carbonyl)-N-(2-hydroxy-2-methylpropyl)-5-(4-(trifluoromethyl)-6-(((1-(trifluoromethyl)cyclopropyl)methyl)amino)pyridin-3-yl)thiazole-2-carboxamide]	98* %	9.07	7.16	–	–	–
C[C@H]1CCCN1C(=O)c1nc(C(=O)NCC2(O)COC2)sc1-c1cnc(NC2CCCC2)cc1C(F)F [Example 73, (S)-5-(6-(Cyclopentylamino)-4-(difluoromethyl)pyridin-3-yl)-N-((3-hydroxyoxetan-3-yl)methyl)-4-(2-methylpyrrolidine-1-carbonyl)thiazole-2-carboxamide]	104* %	7.96	7.13	–	–	–
CC1(Nc2cc(C(F)F)c(-c3sc(C(=O)N[C@H]4C[C@H](O)C4)nc3C(=O)N3C4CCC3CC4)cn2)CCC1 [Example 330, 4-((1s,4s)-7-Azabicyclo[2.2.1]heptane-7-carbonyl)-5-(4-(difluoromethyl)-6-((1-methylcyclobutyl)amino)pyridin-3-yl)-N-((1r,3R)-3-hydroxycyclobutyl)thiazole-2-carboxamide]	–	8.38	–	93	7.80	–
C[C@H](Nc1cc(C(F)(F)F)c(-c2sc(C(=O)N[C@H](C)C(C)(C)O)nc2C(=O)N2CC(F)(F)C[C@@H]2C)cn1)C1CC1 [Example 203, 5-(6-(((S)-1-Cyclopropylethyl)amino)-4-(trifluoromethyl)pyridine-3-yl)-4-((S)-4,4-difluoro-2-methylpyrrolidine-1-carbonyl)-N—((R)-3-hydroxy-3-methylbutan-2-yl)thiazole-2-carboxamide]	97* %	8.82	7.38	–	–	–
CC[C@H](Nc1cc(C(F)F)c(-c2sc(C(=O)NC3CCOCC3)nc2C(=O)N2CC(F)(F)C[C@@H]2C)cn1)C(F)(F)F [Example 422, 4-[(2S)-4,4-Difluoro-2-methyl-pyrrolidine-1-carbonyl]-5-[4-(difluoromethyl)-6-[[(1S)-1-(trifluoromethyl)propyl]amino]-3-pyridyl]-N-tetrahydropyran-4-yl-thiazole-2-carboxamide]	–	9.21	–	101	7.64	–
C[C@H]1CCCN1C(=O)c1nc(C(=O)NCC(C)(C)O)sc1-c1cncc(NC2CCCCC2)c1C#N [Comparator Example 2, (S)-5-(4-Cyano-5-(cyclohexylamino)pyridin-3-yl)-N-(2-hydroxy-2-methylpropyl)-4-(2-methylpyrrolidine-1-carbonyl)thiazole-2-carboxamide, reference compound]	–	5.24	–	–	–	pIC50 (full-length human RORγt; HEK293T cells): 5.52
CC[C@H](Nc1cc(C(F)F)c(-c2sc(C(=O)N[C@H]3CC[C@H]3O)nc2C(=O)N2CCC[C@@H]2C)cn1)C(F)(F)F (relative stereo) [Example 380, 5-(4-(Difluoromethyl)-6-(((S)-1,1,1-trifluorobutan-2-yl)amino)pyridin-3-yl)-N-((1S*,2R*)-2-hydroxycyclobutyl)-4-((S)-2-methylpyrrolidine-1-carbonyl)thiazole-2-carboxamide]	–	8.80	–	108	7.74	–
C[C@H](Nc1cc(C(F)F)c(-c2sc(C(=O)N[C@@H]3CC[C@@H](O)C3)nc2C(=O)N2C3CCC2CC3)cn1)C(F)(F)F [Example 438, 4-((1s,4s)-7-Azabicyclo[2.2.1]heptane-7-carbonyl)-5-[4-(difluoromethyl)-6-[[(1S)-2,2,2-trifluoro-1-methyl-ethyl]amino]-3-pyridyl]-N-[(1R,3R)-3-hydroxycyclopentyl]thiazole-2-carboxamide]	–	8.40	–	–	7.08	inhibition at 1 µM (full-length human RORγt; at 1 μM compound concentration, read-out: RORγt (FL) Reporter Assay B or C, % inhibition): 99%
C[C@@H](O)[C@@H](C)NC(=O)c1nc(C(=O)N2CCC[C@@H]2C)c(-c2cnc(NC(C)(C)C)cc2C(F)(F)F)s1 (relative stereo) [Example 237, 5-(6-(tert-Butylamino)-4-(trifluoromethyl)pyridin-3-yl)-N-((2R*,3R*)-3-hydroxybutan-2-yl)-4-((S)-2-methylpyrrolidine-1-carbonyl)thiazole-2-carboxamide]	101* %	8.64	7.51	–	–	–
CC(C)(O)CNC(=O)c1nc(C(=O)N2C3CCC2CC3)c(-c2cnc(NC3CCCC3)cc2C(F)F)s1 [Example 46, 4-((1s,4s)-7-Azabicyclo[2.2.1]heptane-7-carbonyl)-5-(6-(cyclopentylamino)-4-(difluoromethyl)pyridin-3-yl)-N-(2-hydroxy-2-methylpropyl)thiazole-2-carboxamide]	100* %	8.38	7.54	–	–	–
C[C@H](O)[C@H](C)NC(=O)c1nc(C(=O)N2CCC[C@@H]2C)c(-c2cnc(NC(C)(C)C)cc2C(F)(F)F)s1 (relative stereo) [Example 236, 5-(6-(tert-Butylamino)-4-(trifluoromethyl)pyridin-3-yl)-N-((2S*,3S*)-3-hydroxybutan-2-yl)-4-((S)-2-methylpyrrolidine-1-carbonyl)thiazole-2-carboxamide]	122* %	8.80	7.33	–	–	–
CC[C@H](Nc1cc(C(F)F)c(-c2sc(C(=O)N[C@@H](C)[C@H](C)O)nc2C(=O)N2CCC[C@@H]2C)cn1)C(F)(F)F (relative stereo) [Example 217, 5-(4-(Difluoromethyl)-6-(((S)-1,1,1-trifluorobutan-2-yl)amino)pyridin-3-yl)-N-((2S*,3S*)-3-hydroxybutan-2-yl)-4-((S)-2-methylpyrrolidine-1-carbonyl)thiazole-2-carboxamide]	109* %	8.49	7.72	–	–	–
C[C@H](NC(=O)c1nc(C(=O)N2C3CCC2CC3)c(-c2cnc(NC3(C)CCC3)cc2C(F)F)s1)C(C)(C)O [Example 189]	101* %	8.44	7.01	–	–	–
C[C@H](Nc1cc(C(F)F)c(-c2sc(C(=O)NC3CN(S(C)(=O)=O)C3)nc2C(=O)N2CCC[C@@H]2C)cn1)C(F)(F)F [Example 409, 5-[4-(Difluoromethyl)-6-[[(1S)-2,2,2-trifluoro-1-methyl-ethyl]amino]-3-pyridyl]-4-[(2S)-2-methylpyrrolidine-1-carbonyl]-N-(1-methylsulfonylazetidin-3-yl)thiazole-2-carboxamide]	–	8.20	–	103	7.44	–
O=C(N[C@@H]1CC[C@H]1O)c1nc(C(=O)N2C3CCC2CC3)c(-c2cnc(N[C@@H](C3CC3)C(F)(F)F)cc2C(F)F)s1 (relative stereo) [Example 443, 4-((1s,4s)-7-Azabicyclo[2.2.1]heptane-7-carbonyl)-5-(6-(((S)-1-cyclopropyl-2,2,2-trifluoroethyl)amino)-4-(difluoromethyl)pyridin-3-yl)-N-((1R*,2R*)-2-hydroxycyclobutyl)thiazole-2-carboxamide]	–	8.66	–	107	7.80	–
CC1(Nc2cc(C(F)F)c(-c3sc(C(=O)NC4CCS(=O)(=O)CC4)nc3C(=O)N3C4CCC3CC4)cn2)CCC1 [Example 331, 4-((1s,4s)-7-Azabicyclo[2.2.1]heptane-7-carbonyl)-5-(4-(difluoromethyl)-6-((1-methylcyclobutyl)amino)pyridin-3-yl)-N-(1,1-dioxidotetrahydro-2H-thiopyran-4-yl)thiazole-2-carboxamide]	–	8.82	–	81	7.64	–
C[C@H](Nc1cc(C(F)(F)F)c(-c2sc(C(=O)NCC(C)(C)O)nc2C(=O)N2C3CCC2CC3)cn1)C1CCC1 (stereo in doubt) [Example 171, 4-((1s,4s)-7-Azabicyclo[2.2[1]heptane-7-carbonyl)-5-(6-(((S*)-1-cyclobutylethyl)amino)-4-(trifluoromethyl)pyridine-3-yl)-N-(2-hydroxy-2-methylpropyl)thiazole-2-carboxamide]	108* %	8.40	7.80	–	–	–
